Read-outs that look alike come from different tables or passages of the source.
Experiments:
[1] = system: herpes simplex virus type 2; experiment: in vitro antiviral activity, serial dilution, herpes simplex virus type 2; assay type: cell-based; settings: Human alphaherpesvirus 2
Description: (§1) Antiviral activity was determined in vitro by the conventional serial dilution technique against selected virus species such as herpes simplex virus types 1 and 2. In vivo antiviral activity was determined against herpes virus in the mouse genital model and the guinea pig skin infection model.

[2] = system: herpes simplex virus 1; experiment: in vitro antiviral activity, serial dilution, herpes simplex virus type 1; assay type: cell-based; settings: Human alphaherpesvirus 1, read-out: concentration at which active against herpes simplex virus 1
Description: as §1

[3] = system: herpes simplex type 2; experiment: in vivo antiviral activity, mouse genital model; set-up: species or system mice
Description: as §1

[4] = system: herpes simplex virus type 1; experiment: in vivo antiviral activity, guinea pig skin infection model; settings: after 48 hours of topical treatment
Description: as §1

[5] = system: six herpes simplex strains; experiment: plaque count reduction, six herpes simplex strains; assay type: cell-based, herpes simplex virus; settings: at 4-10 mg./ml.
[6] = system: influenza virus A2 /Jap 170; experiment: influenza virus titers in ferret nasal washings; assay type: in vivo; settings: 100-200 mg/kg/day
[7] = system: Trypanosoma brucei; assay type: in vivo, mice; settings: for curative effect against T. brucei infection: mice, oral
Description: (§2) Trypanosomacidal activity was determined against Trypanosoma brucei in mice. In a curative test medication was given (orally or parenterally) as a single dose or daily in equally subdivided doses eight hours apart for four days beginning 72 hours after intraperitoneal infection. In a prophylactic-suppressive test the total daily medication was given as a single treatment one day prior to infection, and thereafter for three consecutive days the total daily medications were administered as equally subdivided doses eight hours apart. The infection was uniformly fatal in five to six days in the absence of therapy. Chemotherapeutic effectiveness was based on extension of survival time. Tests were considered terminated 28 days after infection.

[8] = system: Trypanosoma brucei; experiment: prophylactic-suppressive test against Trypanosoma brucei infection in mice; assay type: in vivo; settings: oral, 50 mg per kg per day
Description: as §2

[9] = system: Endameba criceti; experiment: amebicidal activity in infected hamsters; assay type: in vivo; settings: Mesocricetus auratus, 72 h, oral, read-out: dose at which active orally against Endameba criceti in hamsters
Description: Amebicidal activity was determined by oral administration of the test compound orally to hamsters infected with Endameba criceti and the amount of drug necessary to clear the animals of infection in three days was determined.

[10] = system: S. pyogenes; experiment: in vitro antimicrobial activity, serial dilution, S. pyogenes; assay type: cell-based; settings: Streptococcus pyogenes, read-out: minimum inhibitory concentration (MIC), bacteriostatic activity against S. pyogenes
Description: (§3) The antimicrobial activity of the compounds was determined in vitro by the conventional serial dilution technique against several species of bacteria and fungi, e.g. S. aureus, S. pyogenes, C. albicans, T. mentagrophytes.

[11] = system: S. aureus; experiment: in vitro antimicrobial activity, serial dilution, S. aureus; assay type: cell-based; settings: Staphylococcus aureus, read-out: minimum inhibitory concentration (MIC), bacteriostatic activity against S. aureus
Description: as §3

[12] = system: C. albicans; experiment: in vitro antimicrobial activity, serial dilution, C. albicans; assay type: cell-based; settings: Candida albicans, read-out: MIC, fungistatic activity against C. albicans
Description: as §3

[13] = system: T. mentagrophytes; experiment: in vitro antimicrobial activity, serial dilution, T. mentagrophytes; assay type: cell-based; settings: Trichophyton mentagrophytes, read-out: MIC, fungistatic activity against T. mentagrophytes
Description: as §3

[14] = read-out: concentration at which active in vitro against herpes simplex virus type 2
[15] = in vitro, read-out: concentration at which active against herpes simplex virus 2
[16] = concentration at which active, read-out: antiviral activity against herpes type 2

For `CN(C)CCOc1ccc2c(c1)c(=O)c1ccccc1n2C` [Example 1, 2-(2-Dimethylaminoethoxy)-10-methyl-9(10H)-acridinone], the minimal effective concentration [1, 14] was 3 to 6 µg/mL.
In the case of `Cn1c2ccccc2c(=O)c2cc(OCCN3CCCC3)ccc21` [Example 7, 2-[2-(1-Pyrrolidyl)ethoxy]-10-methyl-9(10H)-acridinone], the minimal effective concentration [1, 15] is reported as 6 µg/mL, the minimal effective concentration [2] is reported as 6 µg/mL and the “effect against herpes virus 2 genital infection in mice” value ([3]; mice, genital infection) is reported as “effective”.
`Cn1c2ccccc2c(=O)c2cc(OCCN3CCOCC3)ccc21` [Example 8, 2-[2-(4-Morpholinyl)ethoxy]-10-methyl-9(10H)-acridinone] gave a minimal effective concentration [1, 15] of 25 µg/mL and a minimal effective concentration [2] of 25 µg/mL.
`CN1CCN(CCOc2ccc3c(c2)c(=O)c2ccccc2n3C)CC1` [Example 9, 2-[2-(4-Methyl-1-piperazinyl)ethoxy]-10-methyl-9(10H)-acridinone] was tested, and the minimal effective concentration [1, 15] was 25 µg/mL and the minimal effective concentration [2] was 25 µg/mL.
`Cn1c2ccccc2c(=O)c2cc(OCCN3CCCCC3)ccc21` [Example 10, 2-[2-(1-Piperidyl)ethoxy]-10-methyl-9(10H)-acridinone] gave a minimal effective concentration [2] of 6 µg/mL.
`CCn1c2ccccc2c(=O)c2cc(OCCN3CCCC3)ccc21` [Example 11, 2-[2-(1-Pyrrolidyl)ethoxy]-10-ethyl-9(10H)-acridinone] gave a minimal effective concentration [1, 15] of 25 µg/mL and a minimal effective concentration [2] of 25 µg/mL.
`Cn1c2ccccc2c(=O)c2cccc(OCCN3CCCC3)c21` [Example 13, 4-[2-(1-Pyrrolidyl)ethoxy]-10-methyl-9(10H)-acridinone] gave a minimal effective concentration [1, 15] of 12 µg/mL.
`Cn1c2ccccc2c(=O)c2cccc(OCCN3CCCCC3)c21` [Example 15, 4-[2-(1-Piperidyl)ethoxy]-10-methyl-9(10H)-acridinone] was tested, and the minimal effective concentration [1, 15] was 12 µg/mL.
With `Cn1c2ccccc2c(=O)c2cc(OCCCCN3CCCC3)ccc21` [Example 16, 2-[4-(1-Pyrrolidyl)butoxy]-10-methyl-9(10H)-acridinone] the minimal effective concentration [1, 15] was 6 µg/mL and the minimal effective concentration [2] was 6 µg/mL.
In the case of `CN(C)CCOc1cccc2c1c(=O)c1ccccc1n2C` [Example 27, 1-(2-Dimethylaminoethoxy)-10-methyl-9(10H)-acridinone], the “reduction of virus titer of herpes simplex virus type 1 in guinea pig skin infection” value [4] is reported as “more than 99%”, the “reduction of the plaque counts of six herpes simplex strains” value [5] is reported as “at least 50%” and the minimal effective concentration [1, 15] is reported as 6 µg/mL. The minimal effective concentration [2] was 6 µg/mL, the “reduction in influenza virus A2 /Jap 170 titers in ferret nasal washings” value [6] was “significant reduction” and the “survival in mice with genital herpes simplex type 2 infection” value ([3]; concentrations ranging from 2.5 to 10%) was 50-90%.
Work on `Cn1c2ccccc2c(=O)c2c(OCCN3CCCCC3)cccc21` [Example 33, 1-[2-(1-Piperidyl)ethoxy]-10-methyl-9(10H)-acridinone] yielded a minimal effective concentration [2] of 6 µg/mL.
`CN1C2CCCC1CC(Oc1cccc3c1c(=O)c1ccccc1n3C)C2` (stereo not drawn) [Example 34, exo-1-(9-Methylgranatanin-3-yloxy)-10-methyl-9(10H)-acridinone] gave a minimal effective concentration [1, 15] of 25 µg/mL and a minimal effective concentration [2] of 25 µg/mL.
`CN(C)CCOc1ccc2c(c1)C(O)(c1ccccc1)c1ccccc1N2C` (stereo not drawn) [Example 37, 2-(2-Dimethylaminoethoxy)-9,10-dihydro-10-methyl-9-phenyl-9-acridinol] was tested, and the “effect against T. brucei infection, intramuscular” value ([7]; intramuscularly, single dose of 200 mg/kg three days after infection) was “completely effective”, the “effect against T. brucei infection, intraperitoneal” value ([7]; intraperitoneally, single dose of 200 mg/kg three days after infection) was “completely effective” and the “curative effect against T. brucei infection” value ([7]; 25 mg/kg/day×4) was “completely effective”. For the same compound, the “effect against T. brucei infection, subcutaneous” value ([7]; subcutaneously, single dose of 200 mg/kg three days after infection) was “completely effective” and the “prophylactic effect against T. brucei infection” value [8] was “completely effective”.
In the case of `CCN(CC)CCOc1ccc2c(c1)C(O)(c1ccccc1)c1ccccc1N2C` (stereo not drawn) [Example 38, 2-(2-Diethylaminoethoxy)-9,10-dihydro-10-methyl-9-phenyl-9-acridinol], the “curative effect against T. brucei infection” value ([7]; 50 mg/kg/day×4) is reported as “completely effective”.
For `COc1ccc(C2(O)c3ccccc3N(C)c3ccc(OCCN(C)C)cc32)cc1` (stereo not drawn) [Example 65, 2-(2-Dimethylaminoethoxy)-9,10-dihydro-9-(4-methoxyphenyl)-10-methyl-9-acridinol], the “curative effect against T. brucei infection” value ([7]; 200 mg/kg/day×4) was “completely effective”.
In the case of `CN(C)CCOc1ccc2c(c1)c(-c1ccccc1)c1ccccc1[n+]2C.Cl.[Cl-]` [Example 68, 2-(2-Dimethylaminoethoxy)-10-methyl-9-phenylacridinium chloride hydrochloride], the “curative effect against T. brucei infection” value ([7]; 25 mg/kg/day×4) is reported as “completely effective”, the “toxicity upon parenteral administration” value ([7]; mouse, in vivo) is reported as “toxic” and the “curative effect against T. brucei infection, parenteral” value ([7]; parenteral, 50 mg/kg dose level) is reported as “some curative effect”.
For `CN(C)CCOc1ccc2c(c1)c(Cc1ccccc1)c1ccccc1[n+]2C.Cl.[Cl-]` [Example 78, 2-(2-Dimethylaminoethoxy)-10-methyl-9-benzylacridinium chloride hydrochloride], the “curative effect against T. brucei infection” value ([7]; 100 mg/kg/day×4) was “completely effective” and the minimal effective dose [9] was 100 mg/kg.
For `CN(C)CCOc1ccc2c(c1)c(Cc1ccc(F)cc1)c1ccccc1[n+]2C.Cl.[Cl-]` [Example 79, 2-(2-Dimethylaminoethoxy)-10-methyl-9-(4-fluorobenzyl)acridinium chloride hydrochloride], the “curative effect against T. brucei infection” value ([7]; 200 mg/kg/day×4) was “completely effective” and the minimal effective dose [9] was 100 mg/kg.
`Cc1ccc(Cc2c3ccccc3[n+](C)c3ccc(OCCN(C)C)cc23)cc1.Cl.[Cl-]` [Example 80, 2-(2-Dimethylaminoethoxy)-10-methyl-9-(4-methylbenzyl)acridinium chloride hydrochloride] was tested, and the “curative effect against T. brucei infection” value ([7]; 200 mg/kg/day×4) was “ineffective”, the MIC [10] was 7.8 µg/mL and the MIC [11] was 15.6 µg/mL.
With `CN(C)CCOc1ccc2c(Cc3ccccc3)c3ccccc3[n+](C)c2c1.Cl.[Cl-]` [Example 81, 3-(2-Dimethylaminoethoxy)-10-methyl-9-benzylacridinium chloride hydrochloride] the “curative effect against T. brucei infection” value ([7]; 100 mg/kg/day×4) was “completely effective”, the MIC [10] was 31.3 µg/mL and the MIC ([11]; in vitro) was 31.3 µg/mL.
`CN(C)CCCOc1ccc2c(Cc3ccccc3)c3ccccc3[n+](C)c2c1.Cl.[Cl-]` [Example 82, 3-(3-Dimethylaminopropoxy)-10-methyl-9-benzylacridinium chloride hydrochloride] was tested, and the “curative effect against T. brucei infection” value ([7]; 100 mg/kg/day×4) was “completely effective” and the MIC ([11]; in vitro) was 31.3 µg/mL.
`CN(C)CCOc1ccc2c(c1)c(Cc1ccc(Cl)cc1)c1ccccc1[n+]2C.Cl.[Cl-]` [Example 83, 2-(2-Dimethylaminoethoxy)-10-methyl-9-(4-chlorobenzyl)acridinium chloride hydrochloride] was tested, and the minimal effective concentration [1, 16] was 25 µg/mL, the “curative effect against T. brucei infection” value ([7]; 200 mg/kg/day×4) was “ineffective” and the MIC ([11]; in vitro) was 7.8 µg/mL.
For `CN(C)CCOc1ccc2c(c1)c(Cc1cccc(F)c1)c1ccccc1[n+]2C.Cl.[Cl-]` [Example 84, 2-(2-Dimethylaminoethoxy)-10-methyl-9-(3-fluorobenzyl)acridinium chloride hydrochloride], the “curative effect against T. brucei infection” value ([7]; 200 mg/kg/day×4) was “completely effective”, the MIC [10] was 15.6 µg/mL and the MIC ([11]; in vitro) was 15.6 µg/mL.
`CCN(CC)CCOc1ccc2c(c1)c(Cc1ccccc1)c1ccccc1[n+]2C.Cl.[Cl-]` [Example 85, 2-(2-Diethylaminoethoxy)-10-methyl-9-benzylacridinium chloride hydrochloride] was tested, and the “curative effect against T. brucei infection” value ([7]; 100 mg/kg/day×4) was “completely effective”, the MIC [10] was 31.3 µg/mL and the MIC ([11]; in vitro) was 31.3 µg/mL.
`CN(C)CCOc1ccc2c(c1)c(Cc1ccccc1)c1ccc(Cl)cc1[n+]2C.Cl.[Cl-]` [Example 86, 2-(2-Dimethylaminoethoxy)-6-chloro-10-methyl-9-benzylacridinium chloride hydrochloride] gave an MIC [12] of 15.6 µg/mL, an MIC [13] of 31.3 µg/mL and a minimal effective concentration [1, 16] of 12 µg/mL. The “curative effect against T. brucei infection” value ([7]; 50 mg/kg/day×4) was “ineffective”, the “toxicity to the animals in the oral curative test” value ([7]; mouse, in vivo, po, 200 mg/kg/day) was “toxic to the animals” and the MIC [10] was 7.8 µg/mL.
In the case of `COc1ccc2c(c1)c(Cc1ccccc1)c1ccc(OCCN(C)C)cc1[n+]2C.Cl.[Cl-]` [Example 87, 3-(2-Dimethylaminoethoxy)-7-methoxy-10-methyl-9-benzylacridinium chloride hydrochloride], the minimal effective concentration [1, 14] is reported as 12 µg/mL and the “effect against T. brucei” value ([7]; 200 mg/kg/day×4, route and test type not given) is reported as “ineffective”.

From patent publication US4244954A, “Acridine compounds and methods of combatting viruses with them” (Sterling Drug Inc., priority 1978, dated 1981)
